The record followed here is publication PMC13393665, “Structure-based virtual screening identifies potential endogenous ligands of the human bitter taste receptor TAS2R46” (The Journal of Biological Chemistry, 2026).

Test in all cases: Clytin II luminescence calcium assay, HEK293
What all share (assay type): cell-based

The target in experiment [1] is T1, TAS2R46 (hTAS2R46) (Homo sapiens, UniProt P59540).
T1 construct: full-length TAS2R46 with first 45 amino acids of SST3 fused at N-terminus; pEF-DEST51; transient in HEK293 with G-alpha16-gust44 and mitochondrial Clytin II
T1 sequence (P59540 1-309): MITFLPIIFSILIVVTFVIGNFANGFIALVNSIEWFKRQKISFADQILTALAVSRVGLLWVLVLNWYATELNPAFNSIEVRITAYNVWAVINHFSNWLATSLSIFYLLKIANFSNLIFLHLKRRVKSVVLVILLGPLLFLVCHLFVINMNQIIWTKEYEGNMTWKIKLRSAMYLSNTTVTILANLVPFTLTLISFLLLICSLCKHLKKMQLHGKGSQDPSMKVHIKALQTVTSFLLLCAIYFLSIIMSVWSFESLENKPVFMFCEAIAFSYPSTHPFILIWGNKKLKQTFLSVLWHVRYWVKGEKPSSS
Particulars: agonist; G-alpha16-gust44 co-expressed; HBSS, 10 mM HEPES pH 7.4.

Experiment [2] has as its target T1, TAS2R46 (hTAS2R46).
Experiment [3] addresses T1, TAS2R46 (hTAS2R46). The settings on record: agonist; G-alpha16-gust44 co-expressed; HBSS, 10 mM HEPES pH 7.4. This is another data set of the same source.

Like-named read-outs stand apart in the source and are kept apart here.

For `C[C@]12CCC(=O)C[C@@H]1CC[C@@H]1[C@@H]2CC[C@]2(C)[C@@H](O)CC[C@@H]12` [dihydrotestosterone], the threshold result at TAS2R46 (hTAS2R46) [1] is listed as “All candidate compounds, except estrone, elicited concentration-dependent responses in TAS2R46-expressing HEK293 cells”.
The term EC50 denotes the midpoint of the concentration-response curve. Take `C[C@]12CC[C@H]3[C@@H](CCC4=CC(=O)CC[C@@]43C)[C@@H]1CC[C@@H]2O` [testosterone]: the EC50 on TAS2R46 (hTAS2R46) [2] stood at 11.7 µM.
Regarding `C[C@]12CCC(=O)C=C1CC[C@@H]1[C@@H]2CC[C@]2(C)C(=O)CC[C@@H]12` [androstenedione], at TAS2R46 (hTAS2R46) [1], the threshold result is on record as “All candidate compounds, except estrone, elicited concentration-dependent responses in TAS2R46-expressing HEK293 cells”.
As to `C[C@]12CCC(=O)C=C1CC[C@@H]1[C@@H]2[C@@H](O)C[C@@]2(C)[C@H]1CC[C@]2(O)C(=O)CO` [cortisol], the threshold result on TAS2R46 (hTAS2R46) [1] is “cortisol and corticosterone showed lower potency than their metabolic intermediates, deoxycorticosterone and cortexolone, respectively”.
As to `C[C@]12CC[C@H](O)CC1=CC[C@@H]1[C@@H]2CC[C@]2(C)C(=O)CC[C@@H]12` [dehydroepiandrosterone], at TAS2R46 (hTAS2R46) [2] (read-out: EC50), the EC50 was found to be 14.9 µM.
As for `C[C@]12CC[C@@H]3c4ccc(O)cc4CC[C@H]3[C@@H]1CCC2=O` [estrone], at TAS2R46 (hTAS2R46) [3], the “Clytin II luminescence calcium assay, HEK293” value is “All candidate compounds, except estrone, elicited concentration-dependent responses”.
`C[C@]12CC[C@H]3[C@@H](CCC4=CC(=O)CC[C@@]43C)[C@@H]1CC[C@@H]2C(=O)CO` [deoxycorticosterone]: the threshold entry on TAS2R46 (hTAS2R46) [1] is “cortisol and corticosterone showed lower potency than their metabolic intermediates, deoxycorticosterone and cortexolone, respectively”.
For `C[C@]12CCC(=O)C=C1CC[C@@H]1[C@@H]2CC[C@@]2(C)[C@H]1CC[C@]2(O)C(=O)CO` [cortexolone], the threshold result on TAS2R46 (hTAS2R46) [1] was “cortisol and corticosterone showed lower potency than their metabolic intermediates, deoxycorticosterone and cortexolone, respectively”.
On to `C[C@]12C[C@H](O)[C@H]3[C@@H](CCC4=CC(=O)CC[C@@]43C)[C@@H]1CC[C@@H]2C(=O)CO` [corticosterone], for which, on TAS2R46 (hTAS2R46) [1], the threshold result is “cortisol and corticosterone showed lower potency than their metabolic intermediates, deoxycorticosterone and cortexolone, respectively”.
Turning to `CC(=O)[C@@]1(O)CC[C@H]2[C@@H]3CCC4=CC(=O)CC[C@]4(C)[C@H]3CC[C@@]21C` [17-hydroxyprogesterone], at TAS2R46 (hTAS2R46) [2] (read-out: EC50), the EC50 is 3.8 µM.
Consider `CC(=O)[C@H]1CC[C@H]2[C@@H]3CCC4=CC(=O)CC[C@]4(C)[C@H]3CC[C@]12C` [progesterone], for which the EC50 at TAS2R46 (hTAS2R46) [2] (read-out: EC50) amounted to 7.9 µM.
